Source: patent US20220402882A1, “HERBICIDAL COMPOUNDS” (SYNGENTA CROP PROTECTION AG, priority 2019, published 2022)

Columns and labels:
Assay type in all cases: in vivo
Conditions in all cases: evaluated after 13 days
[1] = test system: Abutilon theophrasti (ABUTH); experiment: Pre-emergence glasshouse herbicide test
Method: (§1) Seeds of a variety of test species are sown in standard soil in pots (Lolium perenne (LOLPE), Amaranthus retoflexus (AMARE), Abutilon theophrasti (ABUTH), Setaria faberi (SETFA), Echinochloa crus-galli (ECHCG), Ipomoea hederacea (IPOHE)). After cultivation for one day (pre-emergence) or after 8 days cultivation (post-emergence) under controlled conditions in a glasshouse (at 24/16° C., day/night; 14 hours light; 65% humidity), the plants are sprayed with an aqueous spray solution derived from the formulation of the technical active ingredient in acetone/water (50:50) solution containing 0.5% Tween™ 20 (polyoxyethelyene sorbitan monolaurate, CAS RN 9005-64-5). Compounds are applied at 125 g/h unless otherwise indicated. The test plants are then grown in a glasshouse under controlled conditions in a glasshouse (at 24/16° C., day/night; 14 hours light; 65% humidity) and watered twice daily. After 13 days for pre- and post-emergence, the test is evaluated for the percentage damage caused to the plant. The biological activities are shown in the following table on a five-point scale (5=80-100%; 4=60-79%; 3=40-59%; 2=20-39%; 1=0-19%).

[2] = test system: Amaranthus retoflexus (AMARE); experiment: Pre-emergence glasshouse herbicide test
Method: as §1

[3] = test system: Echinochloa crus-galli (ECHCG); experiment: Pre-emergence glasshouse herbicide test
Method: as §1

[4] = test system: Ipomoea hederacea (IPOHE); experiment: Pre-emergence glasshouse herbicide test
Method: as §1

Setaria faberi (SETFA) [5] = experiment: Pre-emergence glasshouse herbicide test
Method: as §1

[6] = test system: Abutilon theophrasti (ABUTH); experiment: Post-emergence glasshouse herbicide test
Method: as §1

[7] = test system: Amaranthus retoflexus (AMARE); experiment: Post-emergence glasshouse herbicide test
Method: as §1

[8] = test system: Echinochloa crus-galli (ECHCG); experiment: Post-emergence glasshouse herbicide test
Method: as §1

[9] = test system: Ipomoea hederacea (IPOHE); experiment: Post-emergence glasshouse herbicide test
Method: as §1

Setaria faberi (SETFA) [10] = experiment: Post-emergence glasshouse herbicide test
Method: as §1

Structure (SMILES) | percentage damage caused to the plant, ABUTH ([1]; *Applied at 250 g/ha) | percentage damage caused to the plant, AMARE ([2]; *Applied at 250 g/ha) | percentage damage caused to the plant, ECHCG ([3]; *Applied at 250 g/ha) | percentage damage caused to the plant, IPOHE ([4]; *Applied at 250 g/ha) | percentage damage caused to the plant, SETFA (Setaria faberi (SETFA) [5]; *Applied at 250 g/ha) | percentage damage caused to the plant, ABUTH ([6]; *Applied at 250 g/ha) | percentage damage caused to the plant, AMARE ([7]; *Applied at 250 g/ha) | percentage damage caused to the plant, ECHCG ([8]; *Applied at 250 g/ha) | percentage damage caused to the plant, IPOHE ([9]; *Applied at 250 g/ha) | percentage damage caused to the plant, SETFA (Setaria faberi (SETFA) [10]; *Applied at 250 g/ha) | percentage damage caused to the plant, ABUTH ([1]; 125 g/h) | percentage damage caused to the plant, AMARE ([2]; 125 g/h) | percentage damage caused to the plant, ECHCG ([3]; 125 g/h) | percentage damage caused to the plant, IPOHE ([4]; 125 g/h) | percentage damage caused to the plant, SETFA (Setaria faberi (SETFA) [5]; 125 g/h) | percentage damage caused to the plant, ABUTH ([6]; 125 g/h) | percentage damage caused to the plant, AMARE ([7]; 125 g/h) | percentage damage caused to the plant, ECHCG ([8]; 125 g/h) | percentage damage caused to the plant, IPOHE ([9]; 125 g/h) | percentage damage caused to the plant, SETFA (Setaria faberi (SETFA) [10]; 125 g/h)
CSc1c(OC(F)(F)F)ccc(C(=O)Nc2nnnn2C)c1Cl [Compound 1.005, 2-chloro-3-methylsulfanyl-N-(1-methyltetrazol-5-yl)-4-(trifluoromethoxy)benzamide] | 2 (2=20-39%) | 4 (4=60-79%) | 1 (1=0-19%) | 1 (1=0-19%) | 1 (1=0-19%) | 5 (5=80-100%) | 5 (5=80-100%) | 5 (5=80-100%) | 5 (5=80-100%) | 5 (5=80-100%) |  |  |  |  |  |  |  |  |  | 
CSc1c(OC(F)(F)C(F)F)ccc(C(=O)Nc2nnnn2C)c1Cl [Compound 1.009, 2-chloro-3-methylsulfanyl-N-(1-methyltetrazol-5-yl)-4-(1,1,2,2-tetrafluoroethoxy)benzamide] |  |  |  |  |  |  |  |  |  |  | 4 (4=60-79%) | 5 (5=80-100%) | 5 (5=80-100%) | 3 (3=40-59%) | 5 (5=80-100%) | 4 (4=60-79%) | 4 (4=60-79%) | 4 (4=60-79%) | 4 (4=60-79%) | 4 (4=60-79%)
Cc1c(C(=O)Nc2nnnn2C)ccc(OC(F)(F)F)c1S(C)(=O)=O [Compound 1.013] |  |  |  |  |  |  |  |  |  |  | 5 (5=80-100%) | 5 (5=80-100%) | 5 (5=80-100%) | 5 (5=80-100%) | 5 (5=80-100%) | 5 (5=80-100%) | 5 (5=80-100%) | 5 (5=80-100%) | 5 (5=80-100%) | 5 (5=80-100%)
CC[S+]([O-])c1c(CC(F)(F)F)ccc(C(=O)Nc2nnnn2C)c1Cl (centres unmarked) [Compound 1.020] |  |  |  |  |  |  |  |  |  |  | 5 (5=80-100%) | 5 (5=80-100%) | 5 (5=80-100%) | 5 (5=80-100%) | 5 (5=80-100%) | 5 (5=80-100%) | 5 (5=80-100%) | 5 (5=80-100%) | 5 (5=80-100%) | 5 (5=80-100%)
CCSc1c(OC(F)(F)F)ccc(C(=O)Nc2nnnn2C)c1Cl [Compound 1.021] |  |  |  |  |  |  |  |  |  |  | 4 (4=60-79%) | 5 (5=80-100%) | 5 (5=80-100%) | 3 (3=40-59%) | 5 (5=80-100%) | 5 (5=80-100%) | 4 (4=60-79%) | 5 (5=80-100%) | 5 (5=80-100%) | 5 (5=80-100%)
CCS(=O)(=O)c1c(CC(F)(F)F)ccc(C(=O)Nc2nnnn2C)c1Cl [Compound 1.022] |  |  |  |  |  |  |  |  |  |  | 5 (5=80-100%) | 5 (5=80-100%) | 5 (5=80-100%) | 5 (5=80-100%) | 5 (5=80-100%) | 5 (5=80-100%) | 4 (4=60-79%) | 5 (5=80-100%) | 5 (5=80-100%) | 5 (5=80-100%)
CC[S+]([O-])c1c(OC(F)(F)F)ccc(C(=O)Nc2nnnn2C)c1C (centres unmarked) [Compound 1.023] |  |  |  |  |  |  |  |  |  |  | 5 (5=80-100%) | 5 (5=80-100%) | 5 (5=80-100%) | 5 (5=80-100%) | 5 (5=80-100%) | 5 (5=80-100%) | 5 (5=80-100%) | 5 (5=80-100%) | 5 (5=80-100%) | 5 (5=80-100%)
CCS(=O)(=O)c1c(CC(F)(F)F)ccc(C(=O)Nc2nnnn2C)c1C [Compound 1.024] |  |  |  |  |  |  |  |  |  |  | 5 (5=80-100%) | 5 (5=80-100%) | 5 (5=80-100%) | 5 (5=80-100%) | 5 (5=80-100%) | 5 (5=80-100%) | 5 (5=80-100%) | 5 (5=80-100%) | 5 (5=80-100%) | 5 (5=80-100%)
CCS(=O)(=O)c1cc(C(=O)Nc2nnnn2C)ccc1OC(F)F [Compound 1.025] |  |  |  |  |  |  |  |  |  |  | 5 (5=80-100%) | 5 (5=80-100%) | 5 (5=80-100%) | 4 (4=60-79%) | 5 (5=80-100%) | 5 (5=80-100%) | 5 (5=80-100%) | 5 (5=80-100%) | 5 (5=80-100%) | 5 (5=80-100%)
CC[S+]([O-])c1c(OC(F)F)ccc(C(=O)Nc2nnnn2C)c1Cl (centres unmarked) [Compound 1.026] |  |  |  |  |  |  |  |  |  |  | 5 (5=80-100%) | 5 (5=80-100%) | 5 (5=80-100%) | 5 (5=80-100%) | 5 (5=80-100%) | 5 (5=80-100%) | 5 (5=80-100%) | 5 (5=80-100%) | 5 (5=80-100%) | 5 (5=80-100%)
CCSc1c(OC(F)F)ccc(C(=O)Nc2nnnn2C)c1Cl [Compound 1.027] |  |  |  |  |  |  |  |  |  |  | 5 (5=80-100%) | 5 (5=80-100%) | 5 (5=80-100%) | 3 (3=40-59%) | 5 (5=80-100%) | 5 (5=80-100%) | 5 (5=80-100%) | 5 (5=80-100%) | 4 (4=60-79%) | 5 (5=80-100%)
